Entries after “also recorded” stand apart in the source; their conditions may differ.
Tests used:
Vps15 LKO mice [1] = test: Immunoblot analyses of total protein liver extracts (Lamp1, Lamp2, p62, LC3, FABP1) of treated mice; format: in vivo; conditions: two weeks
From the text: (§1) The Vsp15 conditional mutant mouse line was established at the MCI/ICS (Mouse Clinical Institute—Institute Clinique de la Souris, Illkirch, France) as described (Nemazanyy, I. et al. Defects of Vps15 in skeletal muscles lead to autophagic vacuolar myopathy and lysosomal disease. EMBO Mol. Med. (2013). Liver specific Vps15 knockout mouse line was generated as described (Nemazanyy I et al., Class III PI3K regulates organismal glucose homeostasis by providing negative feedback on hepatic insulin signalling. Nat Commun. 2015 Sep. 21; 6:8283.). Mice were housed in specific pathogen-free conditions. Male mice (5-8-week-old) were used for the experimentation. Mice were randomly allocated to experimental groups and at least three animals were used for each condition (as indicated in figure legends) to ensure statistics analyses. Animal numbers were chosen to reflect the expected magnitude of response that takes into account the variability observed in previous experiments. All animal studies were approved by the Direction Départementale des Services Vétérinaires, Prefecture de Police, Paris, France (authorization number 75-1313) and the ethical committee of Paris Descartes University (17-052).
(§2) All animals used in the study were fed ad libitum standard chow diet (Teklad global protein diet; 20% protein, 75% carbohydrate, 5% fat) and kept under 12 h/12 h (8 am/8 pm) light on/off cycle. Animals were sacrificed between 2-4 pm unless indicated. […] For 5-bromo-2′deoxyuridine (BrdU) incorporation, mice were treated with BrdU (3 mg/ml, Sigma-Aldrich) dissolved in drinking water for 3 days before sacrifice. […]. For immunohistochemical analysis liver tissue was fixed overnight in phosphate-buffered 10% formalin and embedded in paraffin. […] sections were cut and processed either for staining with eosin/hematoxylin, Sirius Red or for immunohistochemical analyses. Plasmatic TG, Billirubin, Hydroxybutyrate, AST and ALAT activities were measured enzymatically using Olympus AU 400 apparatus.
To prepare protein extract for immunoblot analysis, liver tissue was homogenized in lysis buffer containing 20 mM Tris-HCl (pH 8.0), 5% glycerol, 138 mM NaCl, 2.7 mM KCl, 1% NP-40, 20 mM NaF, 5 mM EDTA, 1× protease inhibitors (Roche), 1× PhosphoStop Inhibitors (Roche). Homogenates were spun at 12000×g for 10 min at 4° C. Protein extracts were resolved by SDS-PAGE before transfer onto PVDF membrane followed by incubation with the primary antibodies and HRP-linked secondary antibodies. Immobilon Western Chemiluminescent HRP Substrate (Millipore) was used for the detection. The images were acquired using ChemiDocTouch Imaging System (BioRad) and the quantification performed using ImageJ software.

Vps15 LKO mice [2] = test: Histological analyses of liver tissue (hematoxylin/eosin, Sirius Red) in treated control and Vps15 LKO mice; format: in vivo; conditions: two weeks
From the text: as §1, §2
For immunohistochemical analysis, liver tissue was fixed overnight in phosphate-buffered 10% formalin and embedded in paraffin. 4 μm sections were cut and processed either for staining with eosin/hematoxylin or for immunohistochemical analyses. Post-staining analyses were performed on digitalized with the NanoZoomer S210 (Hamamatsu) liver tissue slices. Immunohistochemistry of liver tissue sections was performed using anti-p62 (Abnova), anti-TROMA-III-s (DSHB), anti-cytokeratin (AbCyst) or with anti-Lamp1 (Abcam) antibodies.

Vps15 LKO mice [3] = test: Targeted metabolomics of acyl-carnitine fatty acid species in liver tissue of treated mice; format: in vivo; conditions: two weeks
From the text: as §1, §2
Targeted metabolomics analyses were performed on liver tissue extracts obtained with solution of 50% methanol, 30% ACN, and 20% water. The volume of extraction solution added was calculated from weight of powdered tissue (60 mg/ml). After addition of extraction solution, samples were vortexed for 5 min at 4° C., and then centrifuged at 16,000×g for 15 min at 4° C. The supernatants were collected and analysed by liquid chromatography-mass spectrometry using SeQuant ZIC-pHilic column (Merck) for the liquid chromatography separation. Mobile phase A consisted of 20 mM ammonium carbonate plus 0.1% ammonia hydroxide in water. Mobile phase B consisted of ACN. The flow rate was kept at […], and the gradient was 0 min, 80% of B; 30 min, 20% of B; 31 min, 80% of B; and 45 min, 80% of B. The mass spectrometer (QExactive Orbitrap, Thermo Fisher Scientific) was operated in a polarity switching mode and metabolites were identified using TraceFinder Software (Thermo Fisher Scientific). For analyses, metabolomics data were normalized using the median normalization method. MetaboAnalyst 4.0 software was used for heatmaps generation. The algorithm for heatmap clustering was based on the Pearson distance measure for similarity and the Ward linkage method for biotype clustering.

PPARα = format: in vivo; conditions: Vps15 LKO mice, two weeks
Experimental: All animals used in the study were fed ad libitum standard chow diet (Teklad global protein diet; 20% protein, 75% carbohydrate, 5% fat) and kept under 12 h/12 h (8 am/8 pm) light on/off cycle. Animals were sacrificed between 2-4 pm unless indicated. […] Plasmatic TG, Billirubin, Hydroxybutyrate, AST and ALAT activities were measured enzymatically using Olympus AU 400 apparatus.
Total RNA was isolated from liver tissue using RNAeasy Lipid Tissue Mini Kit (Qiagen). Single-strand complementary DNA was synthesized from 1 μg of total RNA using 125 ng of random hexamer primers and SuperScript II (Life Technologies). RT-qPCR was performed on MX3005P instrument (Agilent) using a Brilliant III Ultra-Fast QPCR Master Mix (Agilent). The relative amounts of the mRNAs studied were determined by means of the 2^−ΔΔCT method, with pinin, S18, cyclophilin, eIF2α, HUS, Ubiquitin as reference genes for studies in mice and pinin for studies in human patient samples.

Vps15 LKO mice [4] = test: Plasma biochemical analyses (TG, ALAT, AST) and spleen weight to body weight ratio in treated mice; format: in vivo; conditions: two weeks
From the text: as §1, §2

BA patients = conditions: large clinical use during many years, no controlled studies; cited from earlier work
[5] = Vps15 LKO mice, drug incorporated in food
[6] = Vps15 LKO mice, drug incorporated in food, listed as BEZA
[7] = Vps15 LKO mice, once per day by oral gavage
[8] = Vps15 LKO mice, once per day by oral gavage, listed as FENO
[9] = control mice, fenofibrate incorporated in food

## CC(C)(Oc1ccc(CCNC(=O)c2ccc(Cl)cc2)cc1)C(=O)O [bezafibrate, 2-(4-(2-((4-chlorobenzoyl)amino)ethyl)phenoxy)-2-methylpropanoic acid]
Vps15 LKO mice [1]; [5]
  LC3 lipidation (LC3-II form) in liver (immunoblot): promoted LC3-lipidation
  accumulation of Lamp proteins (Lamp1, Lamp2) in liver (immunoblot): reduced
  autophagic clearance in liver: promoted autophagic clearance
  p62 protein levels in liver (immunoblot): reduction of p62 accumulation
  protein expression of PPARα target Fabp1 in liver (immunoblot): equally effective in restoring
Vps15 LKO mice [1]; [6]
  LC3 lipidation (LC3-II form) in liver (immunoblot): increased lipidation of LC3
  accumulation of Lamp proteins (Lamp1, Lamp2) in liver (immunoblot): decreased Lamp1 and p62 protein levels
  p62 protein levels in liver (immunoblot): decreased Lamp1 and p62 protein levels
Vps15 LKO mice [2]; [5]
  hepatocyte volume (histology): reduce hepatocyte volume
Vps15 LKO mice [2]; [6]
  hepatocyte vacuolation (hematoxylin/eosin): sufficient to decrease hepatocyte vacuolation; also recorded: rescues hepatocyte vacuolation
  portal area organization / architecture of intrahepatic biliary system (histology): improve the portal area organization; also recorded: ameliorates architecture of intrahepatic biliary system
Vps15 LKO mice [3]; drug incorporated in food
  fatty acid oxidation in liver (metabolomics): marked restoration of fatty acid oxidation
  levels of long-chain fatty acid carnitines in liver: decreased levels of long-chain fatty acid carnitines
  levels of short-chain fatty acid carnitines in liver: increased levels of short-chain fatty acid carnitines
Vps15 LKO mice [3]; drug incorporated in food, listed as BEZA
  fatty acid oxidation in liver (metabolomics): sufficient to restore the metabolic activity such as fatty-acid oxidation
PPARα; drug incorporated in food (fenofibrate 200 mg/kg or bezafibrate 0.5%)
  PPARα transcriptional activity in liver (transcript levels of PPARα target genes): equally efficient in restoring PPARα transcriptional activity; also recorded: restoration of PPARα function
PPARα; drug incorporated in food
  liver inflammation (transcript levels of TNF1α, IL1β, F4/80): effective in reducing the inflammation
Vps15 LKO mice [4]; [5]
  liver damage: activity of transaminases (ALAT, AST) in plasma: fenofibrate, independently of mode of administration, was more effective in lowering liver damage compared to bezafibrate treatment
  spleen hypertrophy (ratio of spleen weight to body weight): decreasing spleen hypertrophy
  triglyceride (TG) levels in plasma: effective in lowering TG levels

## CC(C)OC(=O)C(C)(C)Oc1ccc(C(=O)c2ccc(Cl)cc2)cc1 [fenofibrate, 2-{4-[(4-chlorophenyl)carbonyl]phenoxy}-2-méthylpropanoatede propan-2-yle]
Vps15 LKO mice [1]; [5]
  LC3 lipidation (LC3-II form) in liver (immunoblot): induced an important lipidation of LC3 protein; also recorded: promoted LC3-lipidation
  accumulation of Lamp proteins (Lamp1, Lamp2) in liver (immunoblot): significantly ameliorated; also recorded: significantly reverted
  autophagic clearance in liver: promotes autophagic clearance
  p62 protein levels in liver (immunoblot): significantly ameliorated; also recorded: decreased levels of p62 protein
Vps15 LKO mice [1]; [7]
  LC3 lipidation (LC3-II form) in liver (immunoblot): promoted LC3-lipidation
  accumulation of Lamp1 protein in liver (immunoblot): reduced
  autophagic clearance in liver: promoted autophagic clearance
  p62 protein levels in liver (immunoblot): reduction of p62 accumulation
  protein expression of PPARα target Fabp1 in liver (immunoblot): equally effective in restoring
Vps15 LKO mice [1]; [8]
  LC3 lipidation (LC3-II form) in liver (immunoblot): increased lipidation of LC3
  accumulation of Lamp1 protein in liver (immunoblot): decreased Lamp1 and p62 protein levels
  p62 protein levels in liver (immunoblot): decreased Lamp1 and p62 protein levels
Vps15 LKO mice [1]; [9]
  LC3 lipidation (LC3-II form) in liver (immunoblot): induced an important lipidation of LC3 protein; also recorded: promoted LC3-lipidation
Vps15 LKO mice [2]; [5]
  hepatocyte vacuolation (hematoxylin/eosin): significantly decrease hepatocyte vacuolation; also recorded: rescues hepatocyte vacuolation
  hepatocyte volume (histology): reduce hepatocyte volume
  inflammatory cell infiltration in liver (histology): reduce hepatocyte volume and inflammatory cell infiltration
  liver fibrosis / collagen deposition (quantification of Sirius Red staining): lower; also recorded: decreased
  portal area organization / architecture of intrahepatic biliary system (histology): effective in improving the portal area organization; also recorded: ameliorates architecture of biliary system
Vps15 LKO mice [2]; [7]
  hepatocyte volume (histology): reduce hepatocyte volume
Vps15 LKO mice [2]; [8]
  hepatocyte vacuolation (hematoxylin/eosin): sufficient to decrease hepatocyte vacuolation; also recorded: rescues hepatocyte vacuolation
  portal area organization / architecture of intrahepatic biliary system (histology): improve the portal area organization; also recorded: ameliorates architecture of intrahepatic biliary system
Vps15 LKO mice [2]; [9]
  hepatocyte hypertrophy (histology): resulted in hepatocyte hypertrophy
Vps15 LKO mice [3]; once per day by oral gavage
  fatty acid oxidation in liver (metabolomics): marked restoration of fatty acid oxidation
  levels of long-chain fatty acid carnitines in liver: decreased levels of long-chain fatty acid carnitines
  levels of short-chain fatty acid carnitines in liver: increased levels of short-chain fatty acid carnitines
Vps15 LKO mice [3]; once per day by oral gavage, listed as FENO
  fatty acid oxidation in liver (metabolomics): sufficient to restore the metabolic activity such as fatty-acid oxidation
Vps15 LKO mice [4]; [5]
  liver damage: activity of transaminases (ALAT, AST) in plasma: significantly decreased activity of transaminases; also recorded: more effective in lowering liver damage compared to bezafibrate; also recorded: significantly ameliorates liver damage
  triglyceride (TG) levels in plasma: resulted in their normalization; also recorded: effective in lowering TG levels; also recorded: beneficial effect in lowering plasmatic triglycerides
Vps15 LKO mice [4]; [7]
  triglyceride (TG) levels in plasma: effective in lowering TG levels
Vps15 LKO mice [4]; [9]
  triglyceride levels in plasma: effective in lowering triglyceride levels

## desoxycholic acid [UDCA]
BA patients
  prognosis of patients (% of liver transplantation or survival): provided no evidence that it might positively affect prognosis of the patients

Reference: US12377066B2, “Treatment of diseases associated with biliary system destruction” (Assistance Publique-Hopitaux de Paris, priority 2018, dated 2025)
